{
  "source": "patent US20170312290A1",
  "about": "“FUNCTIONALIZED MORPHOLINYL ANTHRACYCLINE DERIVATIVES” (Nerviano Medical Sciences S.R.L., priority 2014, published 2017)",
  "assay_in_all_cases": "In vitro cell proliferation assay (CellTiter-Glo)",
  "type_in_all_cases": "cell-based",
  "key": {"A2780": {"tested_on": "A2780", "conditions": "Homo sapiens, A2780 cells, 72 h treatment, read-out: Cell Line IC50 A2780", "experimental": "(§1) Human cancer cell lines were seeded in white 384 well-plates (1250 cells/well) in complete medium (RPM11640 or E-MEM plus 10% Fetal bovine serum) and treated with compounds dissolved in 0.1% DMSO, 24 h after seeding. The cells were incubated at 37° C. and 5% CO2 and after 72 h the plates were processed using CellTiter-Glo assay (Promega) following the manufacturer's instruction.\n(§2) CellTiter-Glo is a homogenous method based on the quantification of the ATP present, an indicator of metabolically active cells. ATP is quantified using a system based on luciferase and D-luciferin resulting into light generation.\n(§3) Briefly, 25 μL/well of reagent solution are added to each well and, after 5 minutes shaking, microplates are read by a luminometer. The luminescent signal is proportional to the number of live cells present in culture.\n(§4) Dose-response curves were generated by sigmoid function interpolation of 8 concentration points and the antiproliferative activity of compounds was reported as the half-maximal inhibitory concentration (IC50)."}, "HCC1954": {"tested_on": "HCC1954", "conditions": "Homo sapiens, HCC1954 cells, 72 h treatment, read-out: Cell Line IC50 HCC1954", "experimental": "as §1, §2, §3, §4"}, "HCT-116": {"tested_on": "HCT-116", "conditions": "Homo sapiens, HCT-116 cells, 72 h treatment, read-out: Cell Line IC50 HCT-116", "experimental": "as §1, §2, §3, §4"}, "HELA": {"tested_on": "HELA", "conditions": "Homo sapiens, HELA cells, 72 h treatment, read-out: Cell Line IC50 HELA", "experimental": "as §1, §2, §3, §4"}, "MCF7": {"tested_on": "MCF7", "conditions": "Homo sapiens, MCF7 cells, 72 h treatment, read-out: Cell Line IC50 MCF7", "experimental": "as §1, §2, §3, §4"}, "MDA-MB-468": {"tested_on": "MDA-MB-468", "conditions": "Homo sapiens, MDA-MB-468 cells, 72 h treatment, read-out: Cell Line IC50 MDA-MB-468", "experimental": "as §1, §2, §3, §4"}, "MDA-MB_213": {"tested_on": "MDA-MB_213", "conditions": "Homo sapiens, MDA-MB_213 cells, 72 h treatment, read-out: Cell Line IC50 MDA-MB_213", "experimental": "as §1, §2, §3, §4"}},
  "data": [
    {"smiles": "CO[C@H]1OCCN2[C@@H]1O[C@@H]1[C@H](C)O[C@@H](O[C@H]3C[C@](O)(C(C)=O)Cc4c(O)c5c(c(O)c43)C(=O)c3c(F)cccc3C5=O)C[C@@H]12", "note": "[Comp. 21, (8S,10S)-8-acetyl-1-fluoro-6,8,11-trihydroxy-10-{[(1S,3R,4aS,9aR,10aS)-9-methoxy-1-methyloctahydro-1H-pyrano[4′,3′:4,5][1,3]oxazolo[2,3-c][1,4]oxazin-3-yl]oxy}-7,8,9,10-tetrahydrotetracene-5,12-dione]", "values": [
      {"measurement": "IC50", "setting": "A2780", "value": 0.032, "unit": "nM"},
      {"measurement": "IC50", "setting": "HCC1954", "value": 0.377, "unit": "nM"},
      {"measurement": "IC50", "setting": "HCT-116", "value": 0.146, "unit": "nM"},
      {"measurement": "IC50", "setting": "HELA", "value": 0.349, "unit": "nM"},
      {"measurement": "IC50", "setting": "MCF7", "value": 3.52, "unit": "nM"},
      {"measurement": "IC50", "setting": "MDA-MB-468", "value": 0.072, "unit": "nM"},
      {"measurement": "IC50", "setting": "MDA-MB_213", "value": 0.306, "unit": "nM"}
    ]},
    {"smiles": "CO[C@H]1OCCN2[C@@H]1O[C@@H]1[C@H](C)O[C@@H](O[C@H]3C[C@](O)(C(C)=O)Cc4c(O)c5c(c(O)c43)C(=O)c3c(N)cccc3C5=O)C[C@@H]12", "note": "[Comp. 22, (8S,10S)-8-acetyl-1-amino-6,8,11-trihydroxy-10-{[(1S,3R,4aS,9S,9aR,10aS)-9-methoxy-1-methyloctahydro-1H-pyrano[4′,3′:4,5][1,3]oxazolo[2,3-c][1,4]oxazin-3-yl]oxy}-7,8,9,10-tetrahydrotetracene-5,12-dione]", "values": [
      {"measurement": "IC50", "setting": "A2780", "value": 0.044, "unit": "nM"},
      {"measurement": "IC50", "setting": "HCC1954", "value": 0.549, "unit": "nM"},
      {"measurement": "IC50", "setting": "HCT-116", "value": 0.2, "unit": "nM"},
      {"measurement": "IC50", "setting": "HELA", "value": 0.7, "unit": "nM"},
      {"measurement": "IC50", "setting": "MCF7", "value": 0.668, "unit": "nM"},
      {"measurement": "IC50", "setting": "MDA-MB-468", "value": 0.313, "unit": "nM"},
      {"measurement": "IC50", "setting": "MDA-MB_213", "value": 0.538, "unit": "nM"}
    ]},
    {"smiles": "CO[C@H]1OCCN2[C@@H]1O[C@@H]1[C@H](C)OC(O[C@H]3C[C@](O)(C(C)=O)Cc4c(O)c5c(c(O)c43)C(=O)c3c(NC(=O)[C@H](C)N)cccc3C5=O)C[C@@H]12", "note": "(some centres unmarked) [Comp. 26]", "values": [
      {"measurement": "IC50", "setting": "A2780", "value": 1.2, "unit": "nM"},
      {"measurement": "IC50", "setting": "HCC1954", "value": 4.8, "unit": "nM"},
      {"measurement": "IC50", "setting": "HCT-116", "value": 1.1, "unit": "nM"},
      {"measurement": "IC50", "setting": "HELA", "value": 3.5, "unit": "nM"},
      {"measurement": "IC50", "setting": "MCF7", "value": 3.8, "unit": "nM"},
      {"measurement": "IC50", "setting": "MDA-MB-468", "value": 2.3, "unit": "nM"}
    ]}
  ]
}
